Article PMC10285260, “Processive kinetics in the three-step lanosterol 14α-demethylation reaction catalyzed by human cytochrome P450 51A1” (The Journal of Biological Chemistry, 2023)
Values joined by “and” are separate entries in the source; they are usually repeats but may differ in a detail not shown here. Equal entries are not always repeated. Where two headings read alike, the source gives them in different places.

Tests used:
[1] = target: T1, human P450 51A1 (Homo sapiens, UniProt Q16850); test: Stopped-flow koff measurements of P450 51A1-sterol complexes with ketoconazole trap; format: binding; design: made in house; host or cells: Escherichia coli; conditions: 23 °C, 10 μM ketoconazole trap, 1 μM P450 51A1
T1 sequence (Q16850 1-509): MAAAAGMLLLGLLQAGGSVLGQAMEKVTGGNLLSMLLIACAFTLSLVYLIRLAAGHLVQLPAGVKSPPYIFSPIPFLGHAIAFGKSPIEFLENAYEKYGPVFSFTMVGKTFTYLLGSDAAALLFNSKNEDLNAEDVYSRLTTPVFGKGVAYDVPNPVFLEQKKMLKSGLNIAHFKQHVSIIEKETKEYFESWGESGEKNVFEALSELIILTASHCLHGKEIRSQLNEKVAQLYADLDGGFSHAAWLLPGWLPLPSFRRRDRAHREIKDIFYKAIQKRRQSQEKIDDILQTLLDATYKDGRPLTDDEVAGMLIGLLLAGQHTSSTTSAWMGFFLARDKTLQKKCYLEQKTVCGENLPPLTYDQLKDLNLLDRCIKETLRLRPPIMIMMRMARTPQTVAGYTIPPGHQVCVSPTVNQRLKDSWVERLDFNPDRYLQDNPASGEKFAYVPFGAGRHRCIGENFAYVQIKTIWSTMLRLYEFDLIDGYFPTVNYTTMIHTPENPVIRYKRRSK
Method: All assays were done at 23 °C in an OLIS-RSM 1000 stopped-flow spectrophotometer, collecting data every 1 ms over a range of 332 to 565 nm with slit widths of 1.24 mm (8 nm bandpass) and gratings with 400 lines/mm and 500 nm blaze. One syringe contained 20 μM ketoconazole dissolved in 100 mM potassium phosphate buffer (pH 7.4). In a preliminary experiment in which this was mixed with an equal volume of 2 μM P450 51A1 (same buffer), the observed rate of binding (ΔA430) was 25 s^−1.
P450 51A1 (2 μM) was premixed with an equivalent concentration of each of the sterols (in HPCD). Each of these solutions was placed in a drive syringe and rapidly mixed with 20 μM ketoconazole (yielding final concentrations of 1 μM P450 51A1 and 10 μM ketoconazole). The rate of the ΔA430-A390 change was used as the koff rate, that is, the rate at which the sterol left the P450 and allowed it to bind to the trap ligand ketoconazole.

[2] = tested on: human P450 51A1; test: Kinetic modeling (KinTek Explorer) of the single-turnover time course
From the text: The initial koff rate constants used in fitting were the koff rates measured in the stopped-flow trap experiments (Fig. 9). All three oxidation reactions are irreversible, and thus k-2, k-4, and k-6 were set to zero.
Data were imported into KinTek Explorer software (v. 11.01, KinTek, https://kintekcorp.com/software) ([63], [64]) as txt files and processed using an Apple computer (operating system 11.6.2).

[3] = target: T1, human P450 51A1; test: Steady-state LC-UV assay of sterol oxidation to dihydro FF-MAS by reconstituted P450 51A1; conditions: for Rate of FF-MAS formation (replicates): listed as 14-CH2OH dihydrolanosterol
Method: Steady-state incubations (500 μl) were generally done at 37 °C with 0.025 μM P450 51A1, 0.10 μM NADPH-P450 reductase, 100 μM L-α-dilauroyl-sn-glycero-3-phosphocholine, 50 mM potassium phosphate buffer (pH 7.4), 10% (v/v) glycerol, and an indicated concentration of each sterol (in 45% (w/v) HPCD). […] The sterols (stored at 4 °C) were prepared as described above and were heated to 37 °C and sonicated prior to use. Sterol working stocks were diluted in HPCD to ensure a constant concentration of cyclodextrin in each reaction. […] Accordingly, all reactions were done with this concentration of glycerol.
Reactions were preincubated (5 min, 37 °C) prior to initiation with an NADPH-regenerating system (0.5 mM NADP^+, 10 mM glucose 6-phosphate, and 2 μg ml^−1 glucose 6-phosphate dehydrogenase) ([60]) and were stopped after 5 min with the addition of CH2Cl2 (5 ml). (The NADPH-generating system, in addition to lower cost than NADPH, drives the reaction to avoid inhibition of the reductase by accumulated NADP^+). For the 14α-aldehyde, the times of preincubation and reaction were reduced (to 2 min and 1 min, respectively). The quenched mixture was centrifuged (2000g, 5 min), and 4 ml of the bottom (organic) layer was transferred to vials and brought to dryness under a stream of N2 gas. The dried residue was resuspended in CH3OH (100 μl) and was analyzed by UPLC using a 2.1 mm × 100 mm (1.7 μm) octadecylsilane (C18) column (held at 25 °C) and a Waters Acquity UPLC system. Samples (4 °C) were injected (10 μl) at a flow rate of 0.20 ml min^−1 using an isocratic mobile phase of CH3CN (only). The product (FF-MAS) was detected using a Waters Acquity photodiode array detector set at 250 nm (Fig. 4B). Data were processed using the MassLynx software (http://www.waters.com/waters/en_US/MassLynx-Mass-Spectrometry-Software-/nav.htm?cid=513164&locale=en_US), and the amount of product formed was calculated by comparison to a twelve-point dihydro FF-MAS standard curve. Determination of kcat and Km for each reaction was carried out by fitting the data to a Michaelis–Menten hyperbola, which was done using GraphPad Prism.
Incubations were run in triplicate, and the mean values (±SD) were calculated and plotted. The linear regression fits include the Prism error estimates for internal fitting (SE).

[4] = target: T1, human P450 51A1; test: Spectral (difference spectroscopy) Kd estimates of P450 51A1-sterol complexes; format: binding; design: made in house; host or cells: Escherichia coli; conditions: 1.0 μM P450 51A1, quadratic fit
Method: Kd values were estimated by difference spectroscopy. P450 51A1 (1.0 μM) was in each of two glass cuvettes (in 100 mM potassium phosphate buffer, pH 7.4) and a baseline was recorded (OLIS-Amino DW2a). Aliquots of a solution of each sterol–HPCD complex were added to the sample cuvette and an equivalent amount of HPCD was added to the reference cuvette, and spectra were recorded. The time between the collection of individual spectra was ∼3 min. The maximum absorbance difference (usually ΔA390-A418) was plotted versus the nominal concentration of added sterol, and the data were fit to hyperbolae in GraphPad Prism software (GraphPad, https://www.graphpad.com), using a quadratic equation to correct the ligand concentration for the enzyme-bound concentration (used as Y=B+(A/2)∗(1/E)∗((Kd+E+X)-sqrt((Kd + E+X)^∧2-(4∗E∗X)) in Prism software). The linear regression fits include the internal error estimates (SE).

## CC(C)CCCC(C)[C@H]1CC[C@@]2(CO)C3=C(CC[C@]12C)[C@@]1(C)CC[C@H](O)C(C)(C)C1CC3 (stereo partly drawn) [14α-CH2OH dihydrolanosterol, 24,25-dihydro-14α-CH2OH lanosterol]
[1]
  koff: 0.022 ± 0.001 s⁻¹
[2]; all kon set at this value
  k^+ of sterol binding to P450 51A1 (kon) used for fitting: 2e+06 M⁻¹ s⁻¹
[2]; irreversible, set to zero
  k^- of oxidation step of the P450-sterol complex: 0
[2]; optimized model
  k^- of sterol binding to P450 51A1 (koff) used for fitting: 0.040 s⁻¹
[2]; optimized model, label = sterol oxidized in the step
  k^+ of oxidation step of the P450-sterol complex: 3.5 s⁻¹
[3]; oxidation to dihydro FF-MAS
  kcat relative to dihydrolanosterol: ~1.5 fold
  kcat/Km relative to dihydrolanosterol: ~1.5 fold
[3]; substrate 0.25 µM
  Rate of FF-MAS formation (replicates): 1.4 min-1 (2×) and 1.5 min-1
[3]; substrate 0.50 µM
  Rate of FF-MAS formation (replicates): 3.1 min-1 and 3.0 min-1 (2×)
[3]; substrate 0.75 µM
  Rate of FF-MAS formation (replicates): 4.7 min⁻¹ and 4.5 min⁻¹ and 3.9 min⁻¹
[3]; substrate 1.00 µM
  Rate of FF-MAS formation (replicates): 6.5 min-1 (2×) and 7.1 min-1
[3]; substrate 1.50 µM
  Rate of FF-MAS formation (replicates): 8.9 min⁻¹ and 8.6 min⁻¹ and 11.1 min⁻¹
[3]; substrate 2.50 µM
  Rate of FF-MAS formation (replicates): 16.2 min⁻¹ and 16.4 min⁻¹ and 16.5 min⁻¹
[3]; substrate 5.00 µM
  Rate of FF-MAS formation (replicates): 25.1 min⁻¹ and 20.7 min⁻¹ and 25.9 min⁻¹
[3]; substrate 7.50 µM
  Rate of FF-MAS formation (replicates): 25.1 min⁻¹ and 26.3 min⁻¹ and 27.2 min⁻¹
[3]; substrate 10.00 µM
  Rate of FF-MAS formation (replicates): 26.4 min⁻¹ and 27.4 min⁻¹ and 26.6 min⁻¹
[3]; substrate 15.00 µM
  Rate of FF-MAS formation (replicates): 29.2 min⁻¹ and 33.0 min⁻¹ and 31.0 min⁻¹
[4]
  Kd: sub-μM
[4]; read-out: Kd
  Kd: 0.02 ± 0.04 µM
